Data published in patent US9616107B2, “Therapy for kidney disease and/or heart failure” (priority 2011, dated 2017).
Ends that are not written are not given here.

Assay: Pharmacodynamic study of VD in canines: 10-day subcutaneous infusion in high-rate paced heart failure model
Format: in vivo, canine
Details: dog, plasma; Day 10 of continuous vessel dilator infusion 100 ng/kg·min SC; Day 0 0.66+/−0.37; read-out: Pre-proANF (56-92) plasma concentration (radioimmunoassay)
Procedure: A pharmaceutical formulation of VD was prepared in a Tris buffer. 16.0 g glycerol, 6.05 g tris-(hydroxymethyl)-aminomethane (“Tris”), 2.50 g meta cresol were mixed in a 1.00 L volumetric flask. Approximately 900 mL nanopure water was added to the volumetric flask and the mixture was magnetically stirred to reach complete dissolution. 4 normal hydrochloric acid was used to adjust pH to 7.3 at 25° C. Then, the flask was filled to 1 L mark with nanopure water. The pH was rechecked and verified to be 7.3 at 25° C. The pH 7.3 Tris buffer was stored at 2-8° C. until use.
Lyophilized VD peptide (Bachem) was weighted into a glass vial and dissolved into a known volume of the Tris buffer to a concentration between 1 mg/mL and 10 mg/mL. The VD peptide was dissolved by gentle mixing and the solution was allowed to rest for between 20 and 30 minutes. The pH of the solution was checked and adjusted to 7.3 with 0.1 N sodium hydroxide. […]
Seven days prior to the beginning of HRP (Day −7), all dogs were instrumented for ventricular pacing with an IPG (implantable pulse generator) including an RA (right atrium) and RV (right ventricle) lead, and a DSI (Digital Sciences International) device in the femoral artery for arterial blood pressure monitoring. Glomerular filtration rate (GFR) was measured by iohexol clearance on the day before the beginning of HRP (Day −1). […]

“EVVPPQVLSEPNEEAGAALSPLPEVPPWTGEVSPAQR [VD, Vessel Dilator]” gave a level at 240 h of 41.1 ng/mL.
